# Measured values published in ChEMBL document CHEMBL1201862, “PubChem BioAssay data set” (2004).
# The source made the active and inactive calls.
# Tests used:
# BJ [1] = test: cytotoxicity toward BJ-TERT fibroblasts, dose response, cell-based, RAS-independent, luminescence (AID 1933); assay type: functional; conditions: Homo sapiens
# BJ [2] = test: cytotoxicity toward BJ-TERT-LT-ST fibroblasts, dose response, cell-based, RAS-independent, luminescence (AID 1935); assay type: functional; conditions: Homo sapiens;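 note: BJ fibroblasts immortalized with TERT plus LT and ST oncogenes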
# [3] = molecular target: T1, Sentrin-specific protease 6 (Homo sapiens, UniProt Q9GZR1); assay type: functional;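 note: Luminescence-based dose-response confirmatory assay of SENP6 inhibition, following up an ultra-high-throughput screen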
# T1 sequence (Q9GZR1 whole entry): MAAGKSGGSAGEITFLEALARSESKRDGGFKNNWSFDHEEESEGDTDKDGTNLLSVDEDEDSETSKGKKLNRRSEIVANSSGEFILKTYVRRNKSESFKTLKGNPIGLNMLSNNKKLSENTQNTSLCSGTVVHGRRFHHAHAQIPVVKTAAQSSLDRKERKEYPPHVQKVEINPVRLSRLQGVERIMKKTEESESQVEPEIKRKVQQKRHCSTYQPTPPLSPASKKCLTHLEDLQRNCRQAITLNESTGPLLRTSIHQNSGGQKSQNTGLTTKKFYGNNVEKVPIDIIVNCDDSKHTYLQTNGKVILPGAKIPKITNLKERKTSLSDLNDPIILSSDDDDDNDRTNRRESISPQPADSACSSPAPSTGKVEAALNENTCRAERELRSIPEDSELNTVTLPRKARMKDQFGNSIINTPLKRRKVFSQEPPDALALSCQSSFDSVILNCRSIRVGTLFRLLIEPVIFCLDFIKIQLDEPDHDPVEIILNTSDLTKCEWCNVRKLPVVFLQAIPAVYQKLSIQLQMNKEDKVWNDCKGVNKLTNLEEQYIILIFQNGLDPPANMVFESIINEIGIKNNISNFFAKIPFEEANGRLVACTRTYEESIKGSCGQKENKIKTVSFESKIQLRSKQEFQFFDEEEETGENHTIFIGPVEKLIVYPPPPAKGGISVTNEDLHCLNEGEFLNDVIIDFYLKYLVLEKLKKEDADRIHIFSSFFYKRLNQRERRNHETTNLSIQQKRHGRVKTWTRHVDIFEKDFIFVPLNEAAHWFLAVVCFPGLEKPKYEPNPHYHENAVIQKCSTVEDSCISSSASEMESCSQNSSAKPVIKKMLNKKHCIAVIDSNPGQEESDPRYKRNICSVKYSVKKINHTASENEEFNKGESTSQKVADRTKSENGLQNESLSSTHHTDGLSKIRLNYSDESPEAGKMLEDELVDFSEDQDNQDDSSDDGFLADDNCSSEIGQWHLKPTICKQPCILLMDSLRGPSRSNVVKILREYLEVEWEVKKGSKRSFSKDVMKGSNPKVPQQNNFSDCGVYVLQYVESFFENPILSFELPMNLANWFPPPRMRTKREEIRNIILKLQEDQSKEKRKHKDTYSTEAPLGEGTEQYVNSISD
# [4] = molecular target: T2, Tyrosyl-DNA phosphodiesterase 2 (Homo sapiens, UniProt O95551); test: human TDP2 enzyme inhibitors, dose response, biochemical, epi absorbance, IC50 (AID 743297)
# T2 sequence (O95551 whole entry): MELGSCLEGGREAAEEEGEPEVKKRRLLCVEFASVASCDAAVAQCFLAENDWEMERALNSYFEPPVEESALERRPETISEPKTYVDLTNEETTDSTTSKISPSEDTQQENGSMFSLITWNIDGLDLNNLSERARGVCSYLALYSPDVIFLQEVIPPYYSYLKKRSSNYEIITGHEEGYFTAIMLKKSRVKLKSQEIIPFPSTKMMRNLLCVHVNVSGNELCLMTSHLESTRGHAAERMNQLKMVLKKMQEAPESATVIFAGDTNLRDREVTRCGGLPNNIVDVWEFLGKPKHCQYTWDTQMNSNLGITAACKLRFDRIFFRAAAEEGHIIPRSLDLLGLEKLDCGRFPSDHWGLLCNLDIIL
# [5] = molecular target: T3, Sentrin-specific protease 8 (Homo sapiens, UniProt Q96LD8); assay type: functional;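 note: luminescence read-out of SENP8 inhibition, dose-response confirmation following an ultra-high-throughput screen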
# T3 sequence (Q96LD8 whole entry): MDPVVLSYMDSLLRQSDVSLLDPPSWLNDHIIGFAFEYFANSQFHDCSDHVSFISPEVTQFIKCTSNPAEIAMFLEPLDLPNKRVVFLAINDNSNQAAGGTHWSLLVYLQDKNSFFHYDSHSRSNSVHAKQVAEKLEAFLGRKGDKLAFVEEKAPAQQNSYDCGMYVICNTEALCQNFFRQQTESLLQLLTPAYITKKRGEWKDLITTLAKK
# [6] = molecular target: T4, Sentrin-specific protease 7 (Homo sapiens, UniProt Q9BQF6); assay type: functional;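 note: Luminescence-based dose-response confirmation of ultra-high-throughput screening hits, measuring inhibition of SENP7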
# T4 sequence (Q9BQF6 whole entry): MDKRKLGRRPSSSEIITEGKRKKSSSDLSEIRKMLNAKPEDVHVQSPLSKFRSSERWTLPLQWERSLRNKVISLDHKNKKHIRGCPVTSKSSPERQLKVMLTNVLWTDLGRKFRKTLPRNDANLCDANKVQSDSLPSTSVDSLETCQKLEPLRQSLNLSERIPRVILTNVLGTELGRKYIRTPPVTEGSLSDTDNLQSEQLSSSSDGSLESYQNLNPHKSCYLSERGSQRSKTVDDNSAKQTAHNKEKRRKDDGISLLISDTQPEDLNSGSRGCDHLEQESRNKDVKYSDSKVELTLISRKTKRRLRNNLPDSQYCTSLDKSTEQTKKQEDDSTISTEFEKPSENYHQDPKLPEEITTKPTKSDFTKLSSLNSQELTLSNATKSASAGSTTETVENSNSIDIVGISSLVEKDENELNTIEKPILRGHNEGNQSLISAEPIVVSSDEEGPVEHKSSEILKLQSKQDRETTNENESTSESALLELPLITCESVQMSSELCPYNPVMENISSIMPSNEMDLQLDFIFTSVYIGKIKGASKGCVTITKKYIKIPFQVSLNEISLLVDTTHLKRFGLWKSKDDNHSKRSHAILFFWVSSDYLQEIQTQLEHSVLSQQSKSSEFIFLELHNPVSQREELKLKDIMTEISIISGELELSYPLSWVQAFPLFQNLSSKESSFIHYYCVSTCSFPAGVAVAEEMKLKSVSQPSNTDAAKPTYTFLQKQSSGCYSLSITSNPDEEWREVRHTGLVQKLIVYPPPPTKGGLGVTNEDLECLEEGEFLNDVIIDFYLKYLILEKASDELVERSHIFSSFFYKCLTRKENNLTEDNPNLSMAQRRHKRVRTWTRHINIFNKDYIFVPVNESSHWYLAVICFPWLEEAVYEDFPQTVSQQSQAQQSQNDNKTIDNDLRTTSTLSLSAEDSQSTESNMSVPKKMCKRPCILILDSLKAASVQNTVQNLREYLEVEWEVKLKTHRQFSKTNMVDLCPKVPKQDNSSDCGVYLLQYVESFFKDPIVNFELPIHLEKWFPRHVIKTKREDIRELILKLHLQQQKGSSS
# [7] = inhibitors of intracellular T. cruzi replication, confirmation, NIH3T3 host cells, beta-gal luminescence (AID 2044); assay type: functional, cell-based;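 note: intracellular parasites grown in NIH/3T3 mouse fibroblasts as host cells; luminescent beta-galactosidase reporter signal from transgenic T. cruzi replicating inside host cells; inhibitors lower the luminescence signal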
SMILES,EC50 (BJ [1]),EC50 (BJ [2]),IC50 [3],IC50 [4],IC50 [5],IC50 [6],EC50 [7]
COCCCNC(=O)c1ccc2c3c(onc13)-c1ccccc1C2=O,8.03 µM (inconclusive),7.47 µM (active),,,,,
CCCCn1c(NC(=O)c2ccccc2Cl)c(C#N)c2nc3ccccc3nc21,,,0.986 µM (active),> 4.76 µM (active),1.99 µM (active),2.96 µM (active),
"O=C1C(=O)c2ccccc2-c2ccccc21 [9,10-PHENANTHRENEQUINONE]",1.96 µM (active),1.63 µM (inconclusive),,1.91 µM (active),,,
CCc1ccc(OCC(=O)N/N=C2\CC(=O)c3ccccc32)cc1,,,4.06 µM (active),,8.49 µM (active),> 100 µM (inactive),
CCC(=O)OCCNc1cc(Sc2nccn2C)c2nonc2c1[N+](=O)[O-],,,,,,,1.97 µM (active)
O=C1C=C(N(CCO)Cc2ccccc2)c2ccccc2C1=O,,,,,,,> 30 µM (not active)
